# Test results taken from PubChem BioAssay (NCI).
#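 Values below derive from 48-hour exposures of cells grown in 96-well plates, with endpoints linearly interpolated between the two concentrations bracketing the appropriate inhibition level. GI50: concentration for 50% inhibition of growth. At the TGI there is no net growth.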
# Experiments:
# Assay in all cases: NCI tumour cell line growth inhibition, 48 h
# BT-549 breast = test system: BT-549 breast
# HCT-15 colon = test system: HCT-15 colon
# HT29 colon = test system: HT29 colon
# LOX IMVI melanoma = test system: LOX IMVI melanoma
# MDA-MB-435 = test system: MDA-MB-435
# MOLT-4 leukemia = test system: MOLT-4 leukemia
# NCI/ADR-RES ovarian = test system: NCI/ADR-RES ovarian
# OVCAR-3 ovarian = test system: OVCAR-3 ovarian
# OVCAR-4 ovarian = test system: OVCAR-4 ovarian
# RXF 393 renal = test system: RXF 393 renal
Structure (SMILES),GI50 (BT-549 breast),TGI (BT-549 breast),GI50 (HCT-15 colon),TGI (HCT-15 colon),GI50 (HT29 colon),TGI (HT29 colon),GI50 (LOX IMVI melanoma),TGI (LOX IMVI melanoma),GI50 (MDA-MB-435),TGI (MDA-MB-435),GI50 (MOLT-4 leukemia),TGI (MOLT-4 leukemia),GI50 (NCI/ADR-RES ovarian),TGI (NCI/ADR-RES ovarian),GI50 (OVCAR-3 ovarian),TGI (OVCAR-3 ovarian),GI50 (OVCAR-4 ovarian),TGI (OVCAR-4 ovarian),GI50 (RXF 393 renal),TGI (RXF 393 renal)
N#Cc1cc(-c2cc3ccccc3o2)oc1N,3.58 µM,14 µM,3.35 µM,13 µM,3.35 µM,11.3 µM,2.87 µM,12.5 µM,3.69 µM,16.9 µM,1.94 µM,6.64 µM,3.71 µM,> 100 µM,1.98 µM,6.38 µM,3.23 µM,40.6 µM,3.96 µM,13.5 µM
COC(=O)Nc1nc2ccc(C3(c4ccc(F)cc4)OCCO3)cc2[nH]1,2.77 µM,> 100 µM,0.178 µM,> 100 µM,0.317 µM,> 100 µM,0.732 µM,> 100 µM,0.0436 µM,0.238 µM,0.573 µM,> 100 µM,0.28 µM,> 35.4 µM,0.301 µM,–,7.16 µM,> 100 µM,0.211 µM,0.654 µM
Cc1cc(C(=O)Nc2ccc3cc(CN4CCOCC4)ccc3n2)c(C)n1-c1ccccc1,1.17 µM,5.84 µM,2.41 µM,20.4 µM,2.71 µM,> 100 µM,1.99 µM,15.2 µM,1.38 µM,5.22 µM,0.812 µM,3.29 µM,1 µM,4.69 µM,1.58 µM,6.72 µM,1.24 µM,> 23.8 µM,2.18 µM,7.01 µM
C=C1C(=O)O[C@H]2[C@H]1CC/C(COC(=O)NCCCCNC(=O)OC/C1=C/CC[C@@]3(C)O[C@H]3[C@H]3OC(=O)C(=C)[C@@H]3CC1)=C\CC[C@@]1(C)O[C@@H]21,1.6 µM,3.63 µM,5.61 µM,20.8 µM,0.605 µM,2.05 µM,0.519 µM,1.92 µM,1.24 µM,3.41 µM,1.47 µM,4.15 µM,37.7 µM,> 100 µM,0.693 µM,2.01 µM,1.77 µM,8.53 µM,1.44 µM,3.36 µM
COc1ccc(C2=C(Cl)c3cc(OC)c(OC)cc3C2Cl)cc1 (centres undefined),–,15.6 µM,–,30.6 µM,–,28.8 µM,–,27.5 µM,–,28.5 µM,–,> 59.4 µM,–,33.3 µM,–,30.9 µM,–,35.4 µM,–,30.4 µM
COc1c2c(cc3c1OCO3)[C@]13C=C[C@H](OC)C[C@H]1N(C2)CC3O (some centres undefined),–,> 100 µM,–,> 100 µM,–,> 100 µM,–,> 100 µM,–,> 100 µM,–,> 100 µM,–,> 100 µM,–,> 100 µM,–,> 100 µM,–,> 100 µM
CCCCCCCCCCCCCCCC(=O)OCC(C[As](=O)(O)O)OC(=O)CCCCCCCCCCCCCCC (centres undefined),–,> 100 µM,–,> 100 µM,–,> 100 µM,–,> 100 µM,–,> 100 µM,–,> 100 µM,–,> 100 µM,–,> 100 µM,–,> 100 µM,–,> 100 µM
